# Experimental data taken from US11918668B2, “Method for producing glyceryl ether-containing composition, and glyceryl ether-containing composition” (ADEKA CORPORATION, priority 2018, dated 2024).
# Experiment: Measurement of total area by solid phase microextraction GC/FID method
# Assay type: physicochemical
# Parameters: unit not given here
# Conditions: total area attributable to components other than the glyceryl ethers; 1.0 g glyceryl ether, 15 minutes at 50° C., after deodorization for the stated time
# Experimental: The total area, as measured using a solid phase microextraction GC/FID method, was measured for each of glyceryl ethers 1 to 12 following the deodorization. Specifically, 1.0 g of a deodorized glyceryl ether was placed in a container, impurities and by-products contained in the glyceryl ether were adsorbed on fibers of DVB/PDMS (divinylbenzene dispersed/polydimethylsiloxane) by heating for 15 minutes at 50° C., these fibers were placed in a holder, and measurements were carried out using gas chromatography (apparatus: GC-2014, produced by Shimadzu Corporation) under the measurement conditions shown below. The total area attributable to components other than the glyceryl ethers was then calculated on the basis of a JIS K 0114 (2012) absolute calibration curve using the analysis software of the chromatography apparatus.
# Column: InertCap (registered trademark) PureWAX (length 30 m, film […] 0.50 μm, inner diameter […])
# Carrier flow rate: 124.5 mL/min
# Injection port temperature: 260° C.
# Detector temperature: 260° C.
row,Structure (SMILES),Total area
1,"CCCCCCOCC(O)CO (stereo not drawn) [Glyceryl ether 1, Monohexyl glyceryl ether]","200,000"
2,"CCCCCCOCC(O)CO (stereo not drawn) [Glyceryl ether 2, Monohexyl glyceryl ether]","120,000"
3,"CCCCCCOCC(O)CO (stereo not drawn) [Glyceryl ether 3, Monohexyl glyceryl ether]","80,000"
4,"CCCCCCOCC(O)CO (stereo not drawn) [Glyceryl ether 4, Monohexyl glyceryl ether]","80,000"
5,"CCCCCCOCC(O)CO (stereo not drawn) [Glyceryl ether 5, Monohexyl glyceryl ether]","60,000"
6,"CCCCCCOCC(O)CO (stereo not drawn) [Glyceryl ether 6, Monohexyl glyceryl ether]","50,000"
7,"CCCCCCOCC(O)CO (stereo not drawn) [Glyceryl ether 7, Monohexyl glyceryl ether]","50,000"
8,"OCC(O)COC1CCCCC1 (stereo not drawn) [Glyceryl ether 8, Monocyclohexyl glyceryl ether]","300,000"
9,"OCC(O)COC1CCCCC1 (stereo not drawn) [Glyceryl ether 9, Monocyclohexyl glyceryl ether]","150,000"
10,"OCC(O)COC1CCCCC1 (stereo not drawn) [Glyceryl ether 10, Monocyclohexyl glyceryl ether]","90,000"
11,"OCC(O)COC1CCCCC1 (stereo not drawn) [Glyceryl ether 11, Monocyclohexyl glyceryl ether]","50,000"
12,"OCC(O)COC1CCCCC1 (stereo not drawn) [Glyceryl ether 12, Monocyclohexyl glyceryl ether]","50,000"
